According to ChEMBL document CHEMBL1201862, “PubChem BioAssay data set” (2004):
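Values below derive from 48-hour exposures of cells grown in 96-well plates, with endpoints linearly interpolated between the two concentrations bracketing the appropriate inhibition level. GI50 is the concentration that inhibits growth by half.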 Active and inactive are the calls of the source. Rule as the data show it: active = GI50 up to about 1.1 µM and inactive = higher.

Key:
Test in all cases: inhibition of tumour cell growth, NCI panel, 48 h
[1] = system: MDA-MB-435
[2] = system: MDA-N
[3] = system: NCI/ADR-RES
[4] = system: PC-3
[5] = system: DMS-114
[6] = system: LXFL 529
[7] = system: XF498
[8] = system: HOP-18
[9] = system: RXF 631

Compound: C1CSCCSCSCCS1
- GI50 [1]: > 100 µM (inactive)
- GI50 [2]: > 100 µM (inactive)
- GI50 [3]: > 100 µM (inactive)
- GI50 [4]: > 100 µM (inactive)

Compound: C#Cc1cccc(N2C(=O)c3c(c(-c4ccccc4)c(-c4ccc(Cc5ccc(-c6c(-c7ccccc7)c7c(c(-c8ccccc8)c6-c6ccccc6)C(=O)N(c6cccc(C#C)c6)C7=O)cc5)cc4)c(-c4ccccc4)c3-c3ccccc3)C2=O)c1
- GI50 [5]: 20.5 µM (inactive)
- GI50 [6]: 14.9 µM (inactive)
- GI50 [7]: 22.8 µM (inactive)

Compound: CC1CC[P+](c2ccccc2)(c2ccccc2)c2c1ccc1ccccc21 (stereo not drawn)
- GI50 [8]: 2.52 µM (inactive)
- GI50 [6]: 0.83 µM (active)
- GI50 [1]: 1.52 µM (inactive)
- GI50 [3]: > 100 µM (inactive)
- GI50 [4]: 0.948 µM (active)

Compound: CC(C)=CCC/C(C)=C/C=C/C(C)=C/C1C[C@@]2(C(O)O1)[C@H](CCCO)/C(=C(/C)C=O)CC[C@]2(C)O (stereo partly drawn)
- GI50 [5]: 13.3 µM (inactive)
- GI50 [8]: 19.1 µM (inactive)
- GI50 [7]: 18.3 µM (inactive)

Compound: Cc1ccc(NC(=O)OCC(COc2ccc(Cl)cc2)OC(=O)Nc2ccc(C)cc2)cc1 (stereo not drawn)
- GI50 [5]: 17.3 µM (inactive)
- GI50 [8]: > 100 µM (inactive)
- GI50 [6]: 23.4 µM (inactive)
- GI50 [9]: 11.5 µM (inactive)
- GI50 [7]: 26.4 µM (inactive)

Compound: COc1ccc(-c2nc3ccc([N+](=O)[O-])cc3c(=O)[nH]2)cc1
- GI50 [5]: 33 µM (inactive)
- GI50 [8]: > 62.4 µM (inactive)
- GI50 [3]: 34 µM (inactive)
- GI50 [7]: 22.7 µM (inactive)

Compound: CCOC(=O)N1C=NC23C(c4ccccc4)C(c4ccccc4)C12C(=O)N(C)C(=O)N3C (stereo not drawn)
- GI50 [8]: 1.52 µM (inactive)
- GI50 [6]: > 100 µM (inactive)
- GI50 [7]: > 100 µM (inactive)

Compound: c1cncc(O[Si](Oc2cccnc2)(Oc2cccnc2)Oc2cccnc2)c1
- GI50 [5]: > 100 µM (inactive)
- GI50 [8]: > 100 µM (inactive)
- GI50 [9]: > 100 µM (inactive)
- GI50 [7]: > 100 µM (inactive)

Compound: CCCCNC(=O)N/C=C1\C(=O)Oc2ccccc2C1=O
- GI50 [5]: 28.3 µM (inactive)
- GI50 [6]: 47.8 µM (inactive)
- GI50 [7]: 14.1 µM (inactive)

Compound: Cn1c(=O)c(-c2ccccc2)c(N=[N+]=[N-])c2ccccc21
- GI50 [1]: 45.4 µM (inactive)
- GI50 [2]: 72.8 µM (inactive)
- GI50 [3]: 28.4 µM (inactive)
- GI50 [4]: 22.3 µM (inactive)

Compound: N#Cc1ccc(C2Oc3ccc(Cl)cc3C=C2[N+](=O)[O-])cc1 (stereo not drawn)
- GI50 [1]: 1.73 µM (inactive)
- GI50 [2]: 1.53 µM (inactive)
- GI50 [4]: 1.38 µM (inactive)

Compound: CC(O)C(CO)NC(=O)C1CSSCC(NC(=O)C(N)Cc2ccccc2)C(=O)NC(Cc2ccccc2)C(=O)NC(Cc2c[nH]c3ccccc23)C(=O)NC(CCCCN)C(=O)NC(C(C)O)C(=O)N1 (stereo not drawn)
- GI50 [1]: > 100 µM (inactive)
- GI50 [2]: > 100 µM (inactive)
- GI50 [3]: > 100 µM (inactive)
- GI50 [4]: > 100 µM (inactive)

Compound: CNC(=S)Nc1sc2c(c1C#N)CCCC2
- GI50 [1]: > 75 µM (inactive)
- GI50 [2]: > 75 µM (inactive)
- GI50 [3]: > 75 µM (inactive)
- GI50 [4]: > 75 µM (inactive)

Compound: Cc1cc2c(cc1C)[n+]([O-])c(C#N)c(Cl)[n+]2[O-]
- GI50 [1]: 21 µM (inactive)
- GI50 [2]: 17.5 µM (inactive)
- GI50 [3]: 15.8 µM (inactive)
- GI50 [4]: 13.2 µM (inactive)

Compound: N=S(=O)(c1ccccc1)c1ccccc1[N+](=O)[O-] (stereo not drawn)
- GI50 [8]: > 100 µM (inactive)
- GI50 [6]: > 100 µM (inactive)
- GI50 [9]: > 100 µM (inactive)
- GI50 [7]: > 100 µM (inactive)

Compound: CN1CN(c2ccccc2)C2(CCNCC2)C1=O
- GI50 [1]: > 100 µM (inactive)
- GI50 [2]: > 100 µM (inactive)
- GI50 [3]: > 100 µM (inactive)
- GI50 [4]: > 100 µM (inactive)

Compound: N#C[C@H](OC1OC(COC2OC(CO)C(O)C(O)C2O)C(O)C(O)C1O)c1ccccc1 (stereo partly drawn)
- GI50 [5]: > 250 µM (inactive)
- GI50 [8]: > 250 µM (inactive)
- GI50 [3]: > 250 µM (inactive)
- GI50 [7]: 23.4 µM (inactive)

Compound: O=C1CCC23CC(C=CC=C12)n1c(=O)n(-c2ccccc2)c(=O)n13 (stereo not drawn)
- GI50 [5]: 37.3 µM (inactive)
- GI50 [8]: > 100 µM (inactive)
- GI50 [3]: 38.5 µM (inactive)
- GI50 [7]: > 100 µM (inactive)

Compound: SC1=Nc2ccccc2-c2nc(-c3ccccc3)cc(-c3ccc(Br)cc3)c2C1
- GI50 [1]: 6.73 µM (inactive)
- GI50 [2]: 2.51 µM (inactive)
- GI50 [3]: 1.56 µM (inactive)
- GI50 [4]: 6.44 µM (inactive)
